For series [1], the target named is T1, aromatase (Rattus norvegicus, UniProt P22443).
T1 construct: from tissue; host or cells: whole animal: adult female Wistar rats (endogenous enzyme)
T1 sequence (P22443 1-508): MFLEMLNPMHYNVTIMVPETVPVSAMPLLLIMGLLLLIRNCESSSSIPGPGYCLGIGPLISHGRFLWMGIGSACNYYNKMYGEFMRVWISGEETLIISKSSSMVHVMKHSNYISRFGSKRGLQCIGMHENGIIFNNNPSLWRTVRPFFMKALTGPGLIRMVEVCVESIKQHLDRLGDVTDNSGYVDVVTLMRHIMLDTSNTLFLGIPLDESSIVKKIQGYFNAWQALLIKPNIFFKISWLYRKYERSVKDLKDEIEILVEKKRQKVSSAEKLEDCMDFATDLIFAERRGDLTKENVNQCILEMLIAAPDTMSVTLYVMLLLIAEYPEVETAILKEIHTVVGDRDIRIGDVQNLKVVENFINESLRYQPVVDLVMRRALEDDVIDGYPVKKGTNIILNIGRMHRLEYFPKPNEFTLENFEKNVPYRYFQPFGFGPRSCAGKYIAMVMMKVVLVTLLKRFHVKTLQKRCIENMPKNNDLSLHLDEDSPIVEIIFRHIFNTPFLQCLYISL
Description: Inhibition of aromatase in vivo: inhibition of preovulatory surge of plasma estradiol in female Wistar rats. Conditions: single oral dose 10 μg/kg on diestrus, plasma estradiol 24 h later, vs vehicle controls; range = independent studies. From the text: Aromatase is the steroidogenic enzyme responsible for the biosynthesis of estradiol, the main female sex hormone among estrogens. In the rat, estradiol is physiologically synthesized to high circulating levels in a particular period during the 4-day estrous cycle: it is the so-called preovulatory surge taking place in the afternoon of proestrus, just before ovulation which occurs during the night between proestrous and estrous phases. A sensitive physiological model for in vivo evaluation of aromatase inhibition was developped based on the inhibition of this preovulatory surge of estradiol levels.
Adult female Wistar rats are monitored for regular 4-day estrous cyclicity by daily vaginal smear examination; after 2 or 3 regular cycles, animals are treated by a single oral administration of the very low discriminative dose of 10 micrograms/kg in a 4 ml/kg volume around 04:00 PM on diestrus, i.e. on the day before proestrus. Precisely 24 hours later, aortic blood samples are drawn under gaseous anesthesia. Plasma estradiol levels are measured by radioimmunoassay with commercially available kits (Diagnostic Systems Laboratories, Webster, Tex., U. S. A.). Control and test groups usually consist of 7 to 10 rats, depending on the number of regularly cycling rats to distribute among study groups. Results are expressed in pg/ml and then in % of inhibition taking the estradiol levels of control animals receiving only the oral vehicle as the 100% reference to allow comparisons between different independent studies, since the preovulatory surge level may vary in each control group from one study to another between about 25 to 40 pg/ml.

Series [2] concerns the target T2, human aromatase (Homo sapiens, UniProt P11511).
T2 construct: The JEG-3 cell line, derived from a human placental choriocarcinoma, is intrinsically very rich in human aromatase; endogenous in cells; host or cells: JEG-3 (human placental choriocarcinoma)
T2 sequence (P11511 1-503): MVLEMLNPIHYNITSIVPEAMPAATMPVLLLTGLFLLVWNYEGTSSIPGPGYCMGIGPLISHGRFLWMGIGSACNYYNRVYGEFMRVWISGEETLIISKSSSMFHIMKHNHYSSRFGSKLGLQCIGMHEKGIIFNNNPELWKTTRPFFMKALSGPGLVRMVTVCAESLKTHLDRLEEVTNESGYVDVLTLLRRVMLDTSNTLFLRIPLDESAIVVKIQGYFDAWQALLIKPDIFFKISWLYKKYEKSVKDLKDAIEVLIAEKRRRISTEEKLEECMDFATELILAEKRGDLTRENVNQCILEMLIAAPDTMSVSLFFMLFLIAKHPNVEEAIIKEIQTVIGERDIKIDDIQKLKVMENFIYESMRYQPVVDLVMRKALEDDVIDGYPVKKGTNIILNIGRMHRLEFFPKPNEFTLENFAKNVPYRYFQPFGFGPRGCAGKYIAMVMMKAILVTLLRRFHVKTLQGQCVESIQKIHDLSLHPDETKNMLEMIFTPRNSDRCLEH
As to the kind of experiment: Inhibition of human aromatase in vitro in JEG-3 cells (3H-water release from 1β-3H-androstenedione). The class given is cell-based. To be noted: 10 nM 1β-3H-androstenedione, 2 h incubation. As for the experimental part: Stocks of JEG-3 cells are grown up to 80% of confluence as monolayers in plastic flasks in minimum Eagle's medium with 1 g/l glucose and 10% decomplemented fetal calf serum at pH 7.4 and 37° C., under a 5% CO2 atmosphere. Then, 24 hours before aromatase activity measurement, JEG-3 cells are distributed for seeding in 96-well microplates (60,000 to 100,000 viable cells in 100 μl of culture medium per well); 24 hours later, microplates are rinsed and fresh medium containing the radioactive aromatase substrate (1β-^3H-androstenedione, 10 nM) is added together with test compounds dissolved with 1% dimethylsulfoxyde in a test concentration range between 10^−11 and 10^−4 M in a total volume of 150 μl.
Two hours after the beginning of the incubation, 100 μl of the supernatants are transferred to homologous new 96-well microplates. A solution of dextran-coated charcoal (1%) is added in each well (100 μl/well); after standing for 10 minutes on ice, microplates are centrifuged (1500 g) for 10 more minutes at 4° C. All steroids, including the radioactive substrate and the newly biosynthesized estrogens, are trapped complexed by the charcoal; only the ^3H-water specifically formed during aromatisation of 1β-^3H-androstenedione, involving a specific oxidative step removing the 1β-^3H, remains in the supernatant at this stage.
Finally, aromatase activity is expressed in fmoles/μg DNA in 2 hours and aromatase inhibition in percentage of control incubation without inhibitors.

For orientation: % inhibition means the drop in the measured response relative to a control, in per cent. With `CC(C)(C#N)c1cc(Cn2cncn2)cc(C(C)(C)C#N)c1` [Anastrozole, anastrozole, reference compound], the “% inhibition at 10 μg/kg” value in series [1] is 18%-33%.

The term IC50 denotes the concentration that gives 50% inhibition. Read a low IC50 as inhibition by little substance. As usually defined, the melting point is the temperature of the solid-liquid transition. Molecule `N#Cc1ccc(N(Cc2ccc(C(F)(F)F)cc2)n2ccnc2)cc1` [Example 6, 4-[N-(1H-imidazol-1-yl)-N-(4-trifluoromethylphenylmethyl)amino]benzonitrile] displayed a melting point of 134 °C. For the same molecule, in series [2], the IC50 came out at 0.31 ± 0.01 nM. For the same molecule, the “% inhibition at 10 μg/kg” value in series [1] came to 57%.

In series [2], `N#Cc1ccc(N(Cc2ccc(Cl)cc2)n2ccnc2)cc1` [Example 7, 4-[N-(1H-imidazol-1-yl)-N-(4-chlorophenylmethyl)amino]benzonitrile] showed an IC50 of 0.14 ± 0.05 nM. Further, in series [1], the “% inhibition at 10 μg/kg” value is listed as 47%.

`N#Cc1ccc(CN(c2ccc(C#N)cc2)n2ccnc2)cc1` [Example 11, 4-[N-(1H-imidazol-1-yl)-N-(4-cyanophenylmethyl)amino]benzonitrile] displayed an IC50 in series [2] of 0.18 ± 0.02 nM. In series [1], the “% inhibition at 10 μg/kg” value is recorded as 57%-59%.

`N#Cc1ccc(N(Cc2ccc(F)cc2)n2ccnc2)cc1` [Example 14, 4-[N-(1H-imidazol-1-yl)-N-(4-fluorophenylmethyl)amino]benzonitrile] gave an IC50 in series [2] of 0.16 ± 0.02 nM. Further, in series [1], the “% inhibition at 10 μg/kg” value is on record as 49%-57%.

`N#Cc1ccc(N(Cc2ccc(F)c(F)c2)n2ccnc2)cc1` [Example 17, 4-[N-(1H-imidazol-1-yl)-N-(3,4-difluorophenylmethyl)amino]benzonitrile] had a melting point of 132 °C. For the same molecule, in series [2], half-maximal inhibition (IC50) was put at 0.24 ± 0.02 nM. Besides, the “% inhibition at 10 μg/kg” value in series [1] is 60%.

`N#Cc1ccc(N(Cc2ccc(Br)cc2)n2cncn2)cc1` [YM 511, reference compound] displayed an IC50 in series [2] of 0.3 ± 0.04 nM. In series [1], the “% inhibition at 10 μg/kg” value was 35%.

The values above are taken from US6737433B1, “1-N-phenylamino-1H-imidazole derivatives as aromatase inhibitors and pharmaceutical compositions containing them” (Laboratoire Theramex, priority 2002, dated 2004).
